From patent publication US20240316038A1, “APOL1 INHIBITORS AND METHODS OF USE” (Maze Therapeutics, Inc., priority 2021, published 2024)
pEC50: −log10 of the molar value.

Experiments:
APOL1 G2 [1] = molecular target: T1, APOL1 G2 (Homo sapiens, UniProt O14791, DEL388-389); test: APOL1 calcium transport inhibition assay (GCaMP6f calcium influx, FLIPR) in HEK T-REx/GCaMP6f/APOL1 G2 K6.3 cells; type: cell-based; details: inhibition of APOL1-mediated calcium influx; geometric mean of at least 2 assay runs, † = single assay run (technical duplicate)
T1 construct: expressed in transfected cells; host or cells: HEK293 T-REx clonal lines: HEK T-REx/GCaMP6f/APOL1 G2 K6.3 in A1, HEK293/T-REx APOL1 G2/clone #2 in A2
T1 sequence (O14791 with tags, fused parts or gaps DEL388-389): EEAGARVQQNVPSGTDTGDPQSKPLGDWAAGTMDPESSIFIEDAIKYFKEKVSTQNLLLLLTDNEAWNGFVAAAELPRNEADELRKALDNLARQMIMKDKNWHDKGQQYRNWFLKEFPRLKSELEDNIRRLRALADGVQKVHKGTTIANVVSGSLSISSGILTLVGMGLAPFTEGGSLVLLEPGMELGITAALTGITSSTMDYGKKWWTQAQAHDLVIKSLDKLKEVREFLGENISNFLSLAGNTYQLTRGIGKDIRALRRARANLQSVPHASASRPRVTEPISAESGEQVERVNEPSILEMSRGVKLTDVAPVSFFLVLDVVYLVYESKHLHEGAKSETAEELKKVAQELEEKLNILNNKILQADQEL
Protocol: A HEK293 clonal cell line was generated to stably express GCaMP6f, a genetically encoded calcium indicator, and inducibly express APOL1 G2 (HEK T-REx/GCaMP6f/APOL1 G2 K6.3). Cells were maintained in the following standard complete medium: DMEM with 4.5 g/L glucose and sodium pyruvate (BioWhittaker, Lonza, BE12-614F), supplemented with 10% FBS Performance Plus (Gibco, 16000044), 1% penicillin-streptomycin (BioWhittaker, DE17-602E), 2 mM ultraglutamine-1 (BioWhittaker cat. BE 17-605/U1), 50 μg/mL Zeocin (InvivoGen, ant-zn), 2.5 μg/mL Blasticidin (InvivoGen, ant-bl-5), and 25 μg/mL Hygromycin (InvivoGen, ant-hg). Standard propagation conditions consisted of plating 9×10^6, 4×10^6, 2×10^6 cells in a T225 flasks to be processed after 2, 3, or 4 days, respectively.
A source plate was generated containing 20 serially diluted compounds in DMSO (duplicate 8-point dose response). Next, 0.8 μL of compounds were transferred from the source plate to a destination plate prefilled with 79.2 μL of Ca^2+ free Tyrode's buffer (130 mM NaCl, 5 mM KCl, 1 mM MgCl2, 5 mM NaHCO3, 20 mM HEPES at pH 7.4). The destination plate was placed on a plate shaker (5 seconds at 2000 rpm) to mix. […] All transfer and mixing steps were conducted with an CyBi®-Well dispenser.
Cells were split by gently washing with DPBS (Euroclone, ECB4004L), followed by a 5-minute incubation (humidified, 37° C. with 5% CO2) with trypsin-EDTA solution (Euroclone, ECB3052D). Detached cells were diluted with standard complete medium without selective agents, counted, and plated in a 384 MTP microplate (GR4332CPL, Twin Helix) (10,000 cells/well in 25 μl/well) using a MATRIX WellMate dispenser. Plates were placed into a humidified incubator (37° C. with 5% CO2) overnight. The following day, 20 μL of doxycycline (Sigma, D9891) at 20 ng/mL in standard complete medium was added to cells with a CyBi @Drop dispenser to induce APOL1 G2 expression. After a 6-hour incubation (humidified, 37° C. with 5% CO2), cells were washed 3 times with Ca^2+ free Tyrode's Buffer (130 mM NaCl, 5 mM KCl, 1 mM MgCl2, 5 mM NaHCO3, 20 mM HEPES at pH 7.4) using a BIOTEK Microplate washer, such that 10 μL of buffer remained in each well after the final wash. Assay plates were then stored at room temperature for 10 minutes. Next, 10 μL of diluted compounds were transferred to the assay plate from the 2× compound plate using a CyBi®-Well dispenser. Compound incubation was then carried out at room temperature for 10 minutes. The assay plate was transferred to the […] and 20 μL of 10 mM Ca^2+ (final concentration=5 mM) Tyrode's buffer was injected.
Table B1 below summarizes the data from this experiment. Unless otherwise specified, AC50 and values are reported as the geometric mean of at least 2 assay runs on separate days. Each run represents the average of a technical replicate, where each compound was assayed twice in the same plate. A superscript † symbol indicates a value from the average of a technical replicate from a single assay run, where each compound was assayed twice in the same plate.
The AC50 values in Table B1 below reflect the compound's ability to prevent calcium influx by inhibiting APOL1. […] Compounds in Table B1 are referred to by the corresponding Compound Number in Table 1, which is also referred to in the synthetic examples. When one or more of the numbered compounds are identified by stereochemistry (for example, (R)- or (S)—), the specific stereoisomer for which data is provided in Table B1 may be identified by the elution order of such compound as described in the synthetic examples. To illustrate, Compound 2 is the first-eluting enantiomer of step 4 of Example 1 and Compound 3 is the second-eluting enantiomer of step 4 of Example 1. Further, by way of illustration, Compound 27 is the first-eluting enantiomeric mixture in step 4 of Example 7 and Compound 28 is the second-eluting enantiomeric mixture in step 4 of Example 7. […]

APOL1 G2 [2] = molecular target: T1, APOL1 G2; test: Rescue of HEK293 cell death caused by overexpression of APOL1 (CellTiter-Glo luminescence), HEK293/T-REx APOL1 G2/clone #2; type: cell-based; details: reversal of cell death caused by overexpression of APOL1; geometric mean of at least 2 assay runs, † = single assay run (technical duplicate)
Protocol: A HEK293 clonal cell line overexpressing APOL1 G2 (HEK293/T-REx APOL1 G2/clone #2) was maintained in 1×DMEM-GlutaMax (Gibco, 10569-010) media with 10% tetracycline-free FBS (Takara Bio USA, 631101), 5 μg/mL Blasticidin (Gibco, A1113903), and 100 μg/mL Zeocin (Invitrogen, R25001) in T75 flasks. In preparation for the assay, this media was aspirated and 2 mL of prewarmed TrypLE Express (Gibco, 12605-010) was added to a flask to detach cells. The flask was then incubated (humidified, 37° C. with 5% CO2) for 3-5 minutes. Afterwards, 8 mL of prewarmed cell assay media (lx DMEM-GlutaMax media with 10% tetracycline-free FBS) was added to the trypsinized cells. The suspension was gently mixed, and cells were counted using a Countess Cell Counting Chamber (Invitrogen). The suspension was diluted using cell assay media to generate a working stock solution (166,667 cells/mL). Using a MultiDrop Combi (Thermo Electron Corp), 30 μL (final cell density=5,000 cells/well) of the working stock solution was dispensed into each well of white 384-well assay ready plates (Nunc™, 164610) containing 6 ng/mL doxycycline, to induce APOL1 expression, and compound. All compounds were plated in a duplicate 8-point dilution series that consisted of 3-fold stepwise dilutions (0.5% DMSO final). Assay plates were incubated (humidified, 37° C. with 5% CO2) for 17 hours. After the incubation, the plates were equilibrated at room temperature for 1 hour. Next, 15 μl of CellTiter-Glo® reagent (Promega, G7570) was added to each well using a MultiDrop Combi. Plates were placed on an orbital shaker (500 rpm) for 5 minutes to induce cell lysis and then incubated at room temperature for 10 minutes. Luminescence was measured on an Envision plate reader. Collaborative Drug Discovery software was utilized for graphing data. Plots were generated using a four parameter logistic curve fit.
Table B2 below provides the results from this experiment. Unless otherwise specified, EC50 values are reported as the geometric mean of at least 2 assay runs on separate days. Each run represents the average of a technical replicate, where each compound was assayed twice in the same plate. A superscript t symbol indicates a value from the average of a technical replicate from a single assay run, where each compound was assayed twice in the same plate. Compounds in Table B2 are referred to by the corresponding Compound Number in Table 1, which is also referred to in the synthetic examples. When one or more of the numbered compounds are identified by stereochemistry (for example, (R)- or (S)—), the specific stereoisomer for which data is provided in Table B2 may be identified by the elution order of such compound as described in the synthetic examples. To illustrate, Compound 2 is the first-eluting enantiomer of step 4 of Example 1 and Compound 3 is the second-eluting enantiomer of step 4 of Example 1. Further, by way of illustration, Compound 27 is the first-eluting enantiomeric mixture in step 4 of Example 7 and Compound 28 is the second-eluting enantiomeric mixture in step 4 of Example 7. Then, Compound 27 is separated into Compound 29 (the first-eluting enantiomer) and Compound 30 (the second-eluting enantiomer) in Example 8, and Compound 28 is separated into Compound 31 (the first-eluting enantiomer) and Compound 32 (the second-eluting enantiomer) in Example 8. Absolute stereochemistry of such compounds may be identified by methods known in the art.
Rescue EC50 values reported in Table B2 below represent the half-maximal effective concentration for reversal of cell death caused by overexpression of APOL1.

| SMILES | AC50 (APOL1 G2 [1]) [µM] | pEC50 (APOL1 G2 [2]) |
| --- | --- | --- |
| C[C@@H]1C[C@H](COc2ccc(S(C)(=O)=O)cc2)CN1CC(O)c1cc(C#N)cc(C#N)c1 (single isomer, unassigned) [Compound 118, 5-[(1R or 1S)-1-hydroxy-2-[(2R,4S)-4-[(4-methanesulfonylphenoxy)methyl]-2-methylpyrrolidin-1-ylethyl]benzene-1,3-dicarbonitrile] | 0.936 | 5.39 |
| C[C@H]1CN(CCc2cccc(Cl)c2)C[C@@H]1COc1ccc(N(C)S(C)(=O)=O)cc1 (racemic) [Compound 45, rac-trans-N-(4-((1-(3-chlorophenethyl)-4-methylpyrrolidin-3-yl)methoxy)phenyl)-N-methylmethanesulfonamide] | 0.0712 | > 7.86 |
| CC1CC(COc2ccc(S(C)(=O)=O)cc2)CN1CCc1cc(Cl)cc(C#N)c1 (single isomer, unassigned) [Compound 201, 3-chloro-5-(2-((2R,4S or 2S,4R or 2R,4R or 2S,4S)-2-methyl-4-((4-(methylsulfonyl)phenoxy)methyl)pyrrolidin-1-yl)ethyl)benzonitrile] | 0.62 | 5.77 |
| CC1CNC(COc2ccc(S(C)(=O)=O)cc2)CN1CCc1cccc(Cl)c1 (stereo not drawn) [Compound 211, 1-[2-(3-chlorophenyl)ethyl]-5-[(4-methanesulfonylphenoxy)methyl]-2-methylpiperazine] | < 0.118 | 5.87 |
| CN(c1ccc(OC[C@H](O)CN2CCC(c3cccc(Cl)c3)C2)cc1)S(C)(=O)=O (single isomer, unassigned) [Compound 79, N-(4-((R)-3-((R) or (S)-3-(3-chlorophenyl)pyrro-lidin-1-yl)-2-hydroxypropoxy)phe-nyl)-N-methylmethanesulfon-amide] | 1.29 | < 4.86 |
| CS(=O)(=O)c1ccc(OCC2CN(CCc3cccc(Cl)c3)CCC2O)cc1 (single isomer, unassigned) [Compound 30, (3R,4R) or (3S,4S) or (3R,4S) or (3S,4R)-1-(3-chlorophenethyl)-3-((4-(methylsulfonyl)phenoxy)methyl)piperidin-4-ol] | 0.864 | 5.62 |
| O=S(=O)(c1ccc(OC[C@@H]2CN(CCc3cccc(Cl)c3)CCN2)cc1)C1CNC1 [Compound 185, (3S)-3-{[4-(azetidine-3-sulfonyl)phenoxy]methyl}-1-[2-(3-chlorophenyl)ethyl]piperazine] | 0.322 | 6.62 |
| C[C@@H]1C[C@H](COc2ccc(S(C)(=O)=O)cc2)CN1CC(O)c1cccc(Cl)c1 (single isomer, unassigned) [Compound 214, (1R) or (1S)-1-(3-chlorophenyl)-2-[(2R,4S)-4-[(4-methanesulfonylphenoxy)methyl]-2-methylpyrrolidin-1-yl]ethan-1-ol] | 0.428 | 6.17 |
| Cc1c(C#N)cc(Cl)cc1CCN1C[C@@H](COc2ccc(S(C)(=O)=O)cc2)[C@H](C)C1 [Compound 144, 5-chloro-3-{2-[(3S,4S)-3-[(4-methanesulfon-ylphenoxy)meth-yl]-4-methyl-pyrrolidin-1-yl]-ethyl}-2-methyl-benzonitrile] | 0.423 | 6.59 |
| C[C@]1(O)CN(CCc2cccc(Cl)c2)C[C@H]1COc1ccc(S(C)(=O)=O)cc1 (single isomer, unassigned) [Compound 210, (3S,4R or 3R,4S)-1-[2-(3-chlorophenyl)ethyl]-4-[(4-methanesulfonylphenoxy)methyl]-3-methylpyrrolidin-3-ol] | 0.898 | 5.51 |
| CC1(C)CC(COc2ccc(S(C)(=O)=O)cc2)CN1CCc1cccc(Cl)c1 (stereo not drawn) [Compound 42, 1-(3-chlorophenethyl)-2,2-dimethyl-4-((4-(methylsulfonyl)phenoxy)methyl) pyrrolidine] | 0.477 | 7.23 |
| CC1CC(COc2ccc(S(C)(=O)=O)cc2)CN1CCc1cccc(Cl)c1 (single isomer, unassigned) [Compound 57, (2S,4R) or (2S,4S) or (2R,4S) or (2R,4R)-1-(3-chlorophenethyl)-2-methyl-4-((4-(methylsulfonyl)phenoxy)methyl)pyrrolidine] | < 5 | 5.77 |
